Experimental data as given in patent US20080206198A1, “Compounds and methods for pharmico-gene therapy of epithelial sodium channel associated disorders” (priority 2003, published 2008).
Peptide text beside a SMILES is read from it. * marks the point of attachment. Cbz = O=C(OCc1ccccc1)*

Experiments:
[1] = system: primary fetal fibroblasts; assay: rAAV transduction of primary fetal fibroblasts; format: cell-based; details: data not shown
Protocol: Hela, A549, IB3, and primary fetal fibroblasts were evaluated for AV2Luc and AV2/5Luc transduction in the presence of LLnL, Dox, or LLnL+Dox at various concentrations. The data shown is from Hela and A549 cells at the most optimal dose combination that induces rAV2Luc transduction to a greater extent than each compound alone.

mice = assay: Toxicity of proteasome inhibitors in mice (intra-tracheal and IV); format: in vivo, mouse; details: 10, 100 and 1000 fold higher doses than used in polarized airway cells
Protocol: Long-term enhancement of rAAV transduction by proteasome inhibitor in vivo. To evaluate the potential utility of proteasome inhibitors for in vivo gene therapy, both the toxicity and efficacy of these agents for in vivo rAAV mediated gene transfer in the mouse lung was tested. To assess the toxicity of these proteasome inhibitors in mice, 10, 100, and 1000 fold higher effective doses of LLnL or Z-LLL were administered than used to induce gene transfer in polarized airway cells, using both intra-tracheal and systemic (IV) delivery. No toxicity was indicated by histologic evaluation of the lung and liver or was evidenced by the death of animals. To investigate whether these proteasome inhibitors could improve rAAV transduction in vivo, AV.LacZ (5×10^10 particles) was delivered either alone or in the presence of 400 μM Z-LLL by intranasal administration. Mouse lungs were harvested at 3, 10 and 150 days post-infection to evaluate short and long term effects. […] Targeted transgene expression was predominantly confined to the conducting airways, rather than in the parenchyma. Alveolar cells were rarely transduced. […] The range of transgene expression in distal and proximal airways was 0 to 4% and 5 to 18%, respectively.

ferret fibroblasts = assay: rAAV transduction of ferret fibroblasts; format: cell-based; details: for concentration at which transduction was enhanced: ferret fibroblast cells
From the text: (§1) A. To screen for agents that enhance rAAV transduction, any number of cells can be used. A range of concentrations of the agent to be tested can be determined based on, for instance desirable profiles of the agent, desirable toxicity profiles of the agent and/or concentration of the agents employed in vivo. The usefulness of the cell type chosen for the screen can be confirmed by testing compounds, e.g., proteasome inhibitors such as LLnL and ZLL which are known to increase rAAV transduction. For example, a AAV2 FLAG-Luc vector was employed to transduce HeLa, ferret fibroblasts, IB3 and Huh (liver) cells in the presence or absence of the proteasome inhibitor MG132. MG132 was confirmed to enhance AAV transduction in all cell types tested: HeLa cell transduction was enhanced about 500-fold at 80 μM, and 200-fold at 40 μM, MG132; ferret fibroblast cell transduction was enhanced about 200-fold at 20 μM, and 17-fold at 4 μM, MG132; IB3-1 cell transduction was enhanced about 30 to 70-fold at 20 to 80 μM MG132; and Huh-7 cell transduction was enhanced about 15-fold at 20 to 80 μM MG132. There was no difference in rAAV transduction efficiency in HeLa cells when either DMSO or ETOH was used as a vehicle for MG132. B. HeLa cells were selected to screen for additional agents that enhance rAAV transduction, although any cell strain or line; or primary cells, may be employed. […] The range of concentrations of the agents to be tested were selected based on solubility profiles, toxicity profiles and/or concentrations previously employed in vivo.
C. To determine whether combinations of agents that enhance rAAV transduction efficiency have synergistic or additive effects when used in combination, cells were contacted with the proteasome modulator, doxorubicin, and the proteasome inhibitor Z-LLL or LLnL. Different AAV vectors were tested, including splicing vectors and pseudotyped rAAV. Viral stocks utilized were as follows: Av2RSVluc, 5×10^8 particle/μl; Av2RSVlucCap5 (also referred to as Av2/5 CMVLuc), 2×10^9 particle/μl; Av2CMVluc, 1.3×10^9 particle/μl; and Av2CMVlucCap5, 1.1×109 particle/μl. Combinations of agents were compared to the agents used alone to determine the efficiency of transduction. LLnL was used at 40, 200 or 400 μM, Z-LLL at 4 μM and doxorubicin at 0.5 or 1 μM when employed alone. When a combination of LLnL and doxorubicin was used, LLnL was used at 4, 10, 20, 40, 200 or 400 μM and doxorubicin at 1 or 5 μM. The apical surface of polarized airway epithelia, HeLa cells or ferret fibroblast was contacted with the agents and rAAV (5×10^9 particles per well).

HeLa cells = assay: AAV2 FLAG-Luc transduction of HeLa cells (luciferase screen); format: cell-based, human; details: for concentration at which transduction was enhanced: HeLa cells
From the text: as §1
HeLa cells were infected for 2 hours with an MOI of 100 rAAV in the presence of agents, e.g., ritonavir (Norvir) (1, 10 and 100 μM), cyclosporin A (2.5, 25 and 250 μg/ml), epoxomicin (1, 10 and 50 μM), alcacinomycin A (5, 50 or 500 μM), chymostatin (1, 10 and 100 μM), bestatin (1, 10 and 100 μM), doxorubicin (adriamycin) (0.1, 1 and 10 μM), camptothecin (camptosar) (1, 10 and 100 μM), eicosapentanoic acid (1, 10 and 100 μM), tannic acid (2, 20, 200 and 2000 μM), simvastatin, prodrug (2, 20 and 200 μM), cisplatin (0.2, 2 and 20 μg/mL), and chloroquine (4, 40 and 400 μM). Forty-eight hours after infection, cells were harvested for analysis. rAAV transduction was measured by removing the media from the cell cultures, adding 100 μL reporter lysis buffer (RLB) and freezing. The supernatant was thawed and transferred to microfuge tubes, freeze thawed an additional 2 times, clarified by centrifugation for 10 minutes and then analyzed for reporter gene expression on the lumometer. Protein was determined by Bradford analysis and results were expressed as relative light units per mg protein (RLU/mg).
Based on results with doxorubicin, a small number of FDA approved anthracyclines were tested for their relative in vitro and in vivo activities on AAV transduction. HeLa cells were infected with 100 ppc AAV2FLAG-Luc for 2 hours in the presence of different anthracyclines, e.g., doxorubicin, daunarubicin (Cerubidine), epirubicin (Ellence™), and idarubicin (Idamycin®), and cells harvested 48 hours later. The anthracyclines were pharmaceutical grade, and prepared according to the manufacturer's instructions. Prior to use, the agents were diluted in sterile water to an equal mass, e.g., 0.6 μg/mL, 3 μg/mL and 6 μg/mL. For example, 3 μg/mL idamycin increased luciferase expression by over 5000-fold while doxorubin increased luciferase expression by 58-fold. Generally, the potency was as follows: idarubicin>daunarubicin>epirubicin>doxorubicin.

Row | Compound | induction of transduction [1] | toxicity (histology of lung and liver, death of animals) (mice) | concentration at which transduction was enhanced (ferret fibroblasts) [µM] | concentration at which transduction was enhanced (HeLa cells) [µM] | enhancement of transduction (ferret fibroblasts; ferret fibroblasts infected with lacZ splicing vectors) | result in cell line screening (HeLa cells) | increase in luciferase expression (HeLa cells; 3 μg/mL, 100 ppc AAV2FLAG-Luc, harvest 48 hours) [fold] | order of potency among anthracyclines (HeLa cells; 0.6, 3 and 6 μg/mL) | dose dependence of transduction (HeLa cells; dose ranges tested) | enhancement of ferret fibroblast cell transduction (ferret fibroblasts; 4 μM) [fold] | enhancement of ferret fibroblast cell transduction (ferret fibroblasts; 20 μM) | enhancement of HeLa cell transduction (HeLa cells; 40 μM) | enhancement of HeLa cell transduction (HeLa cells; 80 μM)
1 | N-acetyl-L-leucinyl-L-leucinal-L-norleucinal [LLnL] | 10 fold | No toxicity | 40 | 40 |  |  |  |  |  |  |  |  | 
2 | COc1cccc2c1C(=O)c1c(O)c3c(c(O)c1C2=O)C[C@@](O)(C(=O)CO)C[C@@H]3O[C@H]1C[C@H](N)[C@H](O)[C@H](C)O1 [doxorubicin] | most significantly enhances transduction |  | 1 | 1 | about 100 fold | tested positive | 58 | idarubicin>daunarubicin>epirubicin>doxorubicin | dose-dependent increase in transduction |  |  |  | 
3 | CC(C)C[C@@H](C=O)NC(=O)[C@H](CC(C)C)NC(=O)[C@H](CC(C)C)NC(=O)OCc1ccccc1 [Z-LLL, N-carbobenzoxyl-L-leucinyl-L-leucinyl-L-leucinal] (Cbz-Leu-Leu-Leu-aldehyde) |  | No toxicity |  |  |  |  |  |  |  | ~17 | about 200 fold | about 200 fold | about 500 fold
